Measured values published in ChEMBL document CHEMBL5678818, “Discovery of potent SOS1 inhibitors that block RAS activation via disruption of the RAS-SOS1 interaction” (Proc Natl Acad Sci U S A, 2019).

Assays:
Homo sapiens = species on record: Homo sapiens; test: Inhibition of ACVR1 (unknown origin) assessed as residual activity at 100 nM by KINOMEscan analysis relative to control
[1] = molecular target: CDK4/Cyclin D3 (Homo sapiens) (UniProt P11802+P30281); test: Inhibition of CDK4-cyclin D3 (unknown origin) assessed as residual activity at 100 nM by KINOMEscan analysis relative to control; format: protein-complex assay
[2] = molecular target: T1, Serine/threonine-protein kinase ULK1 (Homo sapiens) (UniProt O75385); test: Inhibition of ULK1 (unknown origin) assessed as residual activity at 100 nM by KINOMEscan analysis relative to control
T1 sequence (whole entry): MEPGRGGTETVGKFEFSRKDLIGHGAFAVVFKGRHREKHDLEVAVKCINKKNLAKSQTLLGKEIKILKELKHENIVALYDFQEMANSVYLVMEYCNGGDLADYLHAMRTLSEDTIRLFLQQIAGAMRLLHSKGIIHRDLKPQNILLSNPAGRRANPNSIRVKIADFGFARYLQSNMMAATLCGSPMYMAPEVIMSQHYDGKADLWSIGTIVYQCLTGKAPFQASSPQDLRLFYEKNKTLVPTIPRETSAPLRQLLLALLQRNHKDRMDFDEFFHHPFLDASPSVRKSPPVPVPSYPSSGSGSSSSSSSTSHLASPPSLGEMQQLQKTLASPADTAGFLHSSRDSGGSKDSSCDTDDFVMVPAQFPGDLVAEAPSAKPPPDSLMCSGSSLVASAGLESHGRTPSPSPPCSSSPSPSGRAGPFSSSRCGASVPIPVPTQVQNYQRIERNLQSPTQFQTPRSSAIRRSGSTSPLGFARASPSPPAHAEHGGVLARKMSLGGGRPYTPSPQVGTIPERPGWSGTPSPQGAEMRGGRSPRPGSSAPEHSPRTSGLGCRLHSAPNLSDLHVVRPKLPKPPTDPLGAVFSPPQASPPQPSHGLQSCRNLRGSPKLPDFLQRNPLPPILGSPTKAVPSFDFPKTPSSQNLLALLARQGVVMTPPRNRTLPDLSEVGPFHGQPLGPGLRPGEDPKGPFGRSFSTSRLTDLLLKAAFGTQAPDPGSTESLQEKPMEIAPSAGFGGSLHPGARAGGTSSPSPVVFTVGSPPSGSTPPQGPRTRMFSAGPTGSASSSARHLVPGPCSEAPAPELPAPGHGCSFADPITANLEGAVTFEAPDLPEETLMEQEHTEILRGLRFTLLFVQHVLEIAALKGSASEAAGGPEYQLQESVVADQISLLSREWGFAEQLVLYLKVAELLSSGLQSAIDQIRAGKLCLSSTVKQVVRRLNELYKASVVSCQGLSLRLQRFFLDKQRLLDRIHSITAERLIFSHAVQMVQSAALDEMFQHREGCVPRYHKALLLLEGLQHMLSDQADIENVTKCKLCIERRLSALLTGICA

[3] = molecular target: T2, Ephrin type-A receptor 3 (Homo sapiens) (UniProt P29320); test: Inhibition of EPHA3 (unknown origin) assessed as residual activity at 100 nM by KINOMEscan analysis relative to control
T2 sequence (whole entry): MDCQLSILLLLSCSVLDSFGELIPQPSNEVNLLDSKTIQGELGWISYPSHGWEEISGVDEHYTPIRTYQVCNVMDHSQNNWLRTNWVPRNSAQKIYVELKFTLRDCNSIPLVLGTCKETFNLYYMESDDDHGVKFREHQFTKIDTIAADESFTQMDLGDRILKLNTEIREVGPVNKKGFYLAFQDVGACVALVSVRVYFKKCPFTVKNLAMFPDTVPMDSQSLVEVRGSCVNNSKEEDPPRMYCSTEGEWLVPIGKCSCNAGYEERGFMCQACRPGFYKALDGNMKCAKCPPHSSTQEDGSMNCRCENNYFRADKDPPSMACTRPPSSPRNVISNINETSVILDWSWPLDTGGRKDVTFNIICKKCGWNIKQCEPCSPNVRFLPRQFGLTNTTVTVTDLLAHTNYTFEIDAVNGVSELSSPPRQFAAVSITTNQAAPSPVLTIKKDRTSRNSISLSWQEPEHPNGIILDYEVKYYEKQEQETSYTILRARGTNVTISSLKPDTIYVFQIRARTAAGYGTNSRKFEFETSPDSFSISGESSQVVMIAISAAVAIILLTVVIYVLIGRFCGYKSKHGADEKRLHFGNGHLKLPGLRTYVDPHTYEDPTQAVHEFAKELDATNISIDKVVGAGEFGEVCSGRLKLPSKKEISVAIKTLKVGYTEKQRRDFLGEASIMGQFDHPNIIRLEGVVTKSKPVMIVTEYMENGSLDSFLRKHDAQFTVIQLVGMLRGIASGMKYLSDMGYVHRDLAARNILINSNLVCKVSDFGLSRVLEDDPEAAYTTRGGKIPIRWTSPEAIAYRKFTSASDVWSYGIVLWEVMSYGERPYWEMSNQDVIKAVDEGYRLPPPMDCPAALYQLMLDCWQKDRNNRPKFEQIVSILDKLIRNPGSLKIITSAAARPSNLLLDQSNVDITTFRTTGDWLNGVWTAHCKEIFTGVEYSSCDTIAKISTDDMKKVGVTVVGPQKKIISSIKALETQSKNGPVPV

## COc1cc2ncnc(N[C@H](C)c3cccc4ccccc34)c2cc1OC
Homo sapiens
  Activity: 83%
[1]
  Activity: 100%
[2]
  Activity: 96%
[3]
  Activity: 81%
